Laboratory results taken from US8173645B2 (Takeda San Diego, Inc., priority 2007, dated 2012).

Molecular target: T1, glucokinase (GK), residues 12-465 of the human enzyme (Homo sapiens, UniProt P35557)
T1 construct: I.D. No. 1 corresponds to residues 12-465 of glucokinase; made in house; host or cells: E. coli DH10b-Tlr
T1 sequence (P35557 with tags, fused parts or gaps isoform P35557-2): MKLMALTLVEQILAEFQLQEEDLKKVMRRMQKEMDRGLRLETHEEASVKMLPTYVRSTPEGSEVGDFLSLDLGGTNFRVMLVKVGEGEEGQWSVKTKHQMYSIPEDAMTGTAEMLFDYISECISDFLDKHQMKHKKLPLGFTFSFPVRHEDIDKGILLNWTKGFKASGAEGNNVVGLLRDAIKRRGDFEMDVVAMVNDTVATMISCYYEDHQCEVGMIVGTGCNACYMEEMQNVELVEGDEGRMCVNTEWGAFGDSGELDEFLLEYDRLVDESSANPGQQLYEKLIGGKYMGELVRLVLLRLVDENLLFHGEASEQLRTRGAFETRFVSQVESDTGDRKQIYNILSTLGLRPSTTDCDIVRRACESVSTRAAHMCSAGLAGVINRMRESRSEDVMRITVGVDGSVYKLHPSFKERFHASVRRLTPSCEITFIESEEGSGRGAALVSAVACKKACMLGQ
Assay: Enzymatic glucokinase activity assay (KinaseGlo luminescence, ATP consumption)
Format: biochemical
Conditions: 5 μM ATP, 5 mM Glucose; for EC50: GK activation, Kact = concentration giving 50% of the maximal increase in GK activity, read-out: pKact; for Emax: calculated maximal gain in GK enzyme activity at a saturating concentration of the compound, read-out: % ACTmax
Summary of the method: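 Activation measured as ATP consumption: residual ATP detected by KinaseGlo luminescence after 60 min at room temperature with 5 μM ATP and 5 mM glucose (Hepes pH 7.2, MgCl2, Brij35, DTT, 2% DMSO). Enzyme was recombinant FLAG-tagged protein from E. coli. Eleven-point twofold series were fitted nonlinearly for pKact and % ACTmax.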

SMILES	EC50 [nM]	Emax [%]
Cc1cc(S(=O)(=O)N2CCN([C@@H](CC3CCCCC3)C(=O)Nc3nccs3)C(=O)C2)c(C)cc1Cl [Example 186, (S)-2-(4-(4-chloro-2,5-dimethylphenylsulfonyl)-2-oxopiperazin-1-yl)-3-cyclohexyl-N-(thiazol-2-yl)propanamide]	≤ 631	≤ 74
O=C(Nc1nccs1)[C@H](CC1CCCCC1)N1CCN(S(=O)(=O)Cc2ccc(Cl)c(Cl)c2)CC1=O [Example 211, (S)-3-cyclohexyl-2-(4-(3,4-dichlorobenzylsulfonyl)-2-oxopiperazin-1-yl)-N-(thiazol-2-yl)propanamide]	1580 to 2510	≤ 74
Cc1nc(C)c(S(=O)(=O)N2CCN([C@@H](CC3CCCCC3)C(=O)Nc3nccs3)C(=O)C2)s1 [Example 54, (S)-3-cyclohexyl-2-(4-(2,4-dimethylthiazol-5-ylsulfonyl)-2-oxopiperazin-1-yl)-N-(thiazol-2-yl)propanamide]	≥ 3160	≥ 119
O=C(Nc1nccs1)[C@H](CC1CCCCC1)N1CCN(S(=O)(=O)Cc2ccc(C(F)(F)F)cc2)CC1=O [Example 210, (S)-3-cyclohexyl-2-(2-oxo-4-(4-(trifluoromethyl)benzylsulfonyl)piperazin-1-yl)-N-(thiazol-2-yl)propanamide]	≥ 3160	≤ 74
N#Cc1ccc(S(=O)(=O)N2CCN([C@@H](CC3CCCCC3)C(=O)Nc3nccs3)C(=O)C2)c(Cl)c1 [Example 52, (S)-2-(4-(2-chloro-4-cyanophenylsulfonyl)-2-oxopiperazin-1-yl)-3-cyclohexyl-N-(thiazol-2-yl)propanamide]	1580 to 2510	74.1 to 97
O=C(Nc1nccs1)[C@H](CC1CCCCC1)N1CCN(C(=O)NC2CCCC2)CC1=O [Example 140, (S)-4-(3-cyclohexyl-1-oxo-1-(thiazol-2-ylamino)propan-2-yl)-N-cyclopentyl-3-oxopiperazine-1-carboxamide]	≥ 3160	74.1 to 97
Cc1cc(S(=O)(=O)N2CCN([C@@H](CC3CCCCC3)C(=O)Nc3nccs3)C(=O)C2)c(C(F)(F)F)o1 [Example 160, (S)-3-cyclohexyl-2-(4-(5-methyl-2-(trifluoromethyl)furan-3-ylsulfonyl)-2-oxopiperazin-1-yl)-N-(thiazol-2-yl)propanamide]	1580 to 2510	108 to 119
O=C(Nc1ncc(F)s1)[C@H](CC1CCOCC1)N1CCN(S(=O)(=O)C2CC2)CC1=O [Example 21, (S)-2-(4-(cyclopropylsulfonyl)-2-oxopiperazin-1-yl)-N-(5-fluorothiazol-2-yl)-3-(tetrahydro-2H-pyran-4-yl)propanamide]	1580 to 2510	108 to 119
O=C(Nc1nccs1)[C@H](CC1CCCCC1)N1CCN(C(=O)Nc2ccc3ccccc3c2)CC1=O [Example 139, (S)-4-(3-cyclohexyl-1-oxo-1-(thiazol-2-ylamino)propan-2-yl)-N-(naphthalen-2-yl)-3-oxopiperazine-1-carboxamide]	≥ 3160	74.1 to 97
Cc1cc(C)cc(S(=O)(=O)N2CCN([C@@H](CC3CCCCC3)C(=O)Nc3nccs3)C(=O)C2)c1 [Example 195, (S)-3-cyclohexyl-2-(4-(3,5-dimethylphenylsulfonyl)-2-oxopiperazin-1-yl)-N-(thiazol-2-yl)propanamide]	≤ 631	≥ 119
O=C(Nc1nccs1)[C@H](CC1CCCCC1)N1CCN(C(=O)Nc2cccc(C(F)(F)F)c2)CC1=O [Example 141, (S)-4-(3-cyclohexyl-1-oxo-1-(thiazol-2-ylamino)propan-2-yl)-3-oxo-N-(3-(trifluoromethyl)phenyl)piperazine-1-carboxamide]	≥ 3160	74.1 to 97
O=C(Nc1nccs1)[C@H](CC1CCCCC1)N1CCN(S(=O)(=O)Cc2ccc(F)cc2)CC1=O [Example 68, (S)-3-cyclohexyl-2-(4-(4-fluorobenzylsulfonyl)-2-oxopiperazin-1-yl)-N-(thiazol-2-yl)propanamide]	794 to 1260	97.1 to 107
CC(=O)c1ccc(S(=O)(=O)N2CCN([C@@H](CC3CCCCC3)C(=O)Nc3nccs3)C(=O)C2)cc1 [Example 206]	≥ 3160	74.1 to 97
O=C(Nc1nccs1)[C@H](CC1CCCCC1)N1CCN(C(=S)NCCN2CCCCC2)CC1=O [Example 121, (S)-3-cyclohexyl-2-(2-oxo-4-(2-(piperidin-1-yl)ethylcarbamothioyl)piperazin-1-yl)-N-(thiazol-2-yl)propanamide]	≤ 631	97.1 to 107
O=C(Nc1nccs1)[C@H](CC1CCCCC1)N1CCN(S(=O)(=O)c2cc(Cl)c(Cl)s2)CC1=O [Example 170, (S)-3-cyclohexyl-2-(4-(4,5-dichlorothiophen-2-ylsulfonyl)-2-oxopiperazin-1-yl)-N-(thiazol-2-yl)propanamide]	≤ 631	≤ 74
CCN(CC)CCCNC(=S)N1CCN([C@@H](CC2CCCCC2)C(=O)Nc2nccs2)C(=O)C1 [Example 133, (S)-3-cyclohexyl-2-(4-(3-(diethylamino)propylcarbamothioyl)-2-oxopiperazin-1-yl)-N-(thiazol-2-yl)propanamide]	794 to 1260	97.1 to 107
O=C(Nc1nccs1)[C@H](CC1CCCCC1)N1CCN(C(=S)NCc2ccccc2)CC1=O [Example 82, (S)-2-(4-(benzylcarbamothioyl)-2-oxopiperazin-1-yl)-3-cyclohexyl-N-(thiazol-2-yl)propanamide]	1580 to 2510	108 to 119
O=C(Nc1nccs1)[C@H](CC1CCCCC1)N1CCN(S(=O)(=O)c2ccc(F)c(Cl)c2)CC1=O [Example 177, (S)-2-(4-(3-chloro-4-fluorophenylsulfonyl)-2-oxopiperazin-1-yl)-3-cyclohexyl-N-(thiazol-2-yl)propanamide]	1580 to 2510	74.1 to 97

Results, then the molecule that gave them:

EC50 [nM]	Emax [%]	SMILES
≤ 631	108 to 119	O=C(Nc1ncc(Cl)s1)C(CC1CCOCC1)N1CCN(S(=O)(=O)c2cccs2)CC1=O (centres unmarked) [Example 36, N-(5-chlorothiazol-2-yl)-2-(2-oxo-4-(thiophen-2-ylsulfonyl)piperazin-1-yl)-3-(tetrahydro-2H-pyran-4-yl)propanamide]
≥ 3160	97.1 to 107	O=C(Nc1nccs1)[C@H](CC1CCCCC1)N1CCN(C(=S)Nc2ccc(Cl)cc2)CC1=O [Example 125, (S)-2-(4-(4-chlorophenylcarbamothioyl)-2-oxopiperazin-1-yl)-3-cyclohexyl-N-(thiazol-2-yl)propanamide]
1580 to 2510	74.1 to 97	Cc1c(Cl)cccc1S(=O)(=O)N1CCN([C@@H](CC2CCCCC2)C(=O)Nc2nccs2)C(=O)C1 [Example 51, (S)-2-(4-(3-chloro-2-methylphenylsulfonyl)-2-oxopiperazin-1-yl)-3-cyclohexyl-N-(thiazol-2-yl)propanamide]
≤ 631	108 to 119	O=C(Nc1nccs1)[C@H](CC1CCCCC1)N1CCN(S(=O)(=O)c2cccc(F)c2)CC1=O [Example 61, (S)-3-cyclohexyl-2-(4-(3-fluorophenylsulfonyl)-2-oxopiperazin-1-yl)-N-(thiazol-2-yl)propanamide]
≥ 3160	97.1 to 107	COc1ccc(S(=O)(=O)N2CCN([C@@H](CC3CCCCC3)C(=O)Nc3nccs3)C(=O)C2)cc1OC [Example 88, (S)-3-cyclohexyl-2-(4-(3,4-dimethoxyphenylsulfonyl)-2-oxopiperazin-1-yl)-N-(thiazol-2-yl)propanamide]
794 to 1260	74.1 to 97	O=C(Nc1nccs1)[C@H](CC1CCCCC1)N1CCN(S(=O)(=O)c2ccc3c(c2)OCCO3)CC1=O [Example 53, (S)-3-cyclohexyl-2-(4-(2,3-dihydrobenzo[b][1,4]dioxin-6-ylsulfonyl)-2-oxopiperazin-1-yl)-N-(thiazol-2-yl)propanamide]
794 to 1260	108 to 119	O=C(Nc1nccs1)[C@H](CC1CCCCC1)N1CCN(S(=O)(=O)C2CC2)CC1=O [Example 96, (S)-3-cyclohexyl-2-(4-(cyclopropylsulfonyl)-2-oxopiperazin-1-yl)-N-(thiazol-2-yl)propanamide]
1580 to 2510	74.1 to 97	N#Cc1ccc(S(=O)(=O)N2CCN([C@@H](CC3CCCCC3)C(=O)Nc3nccs3)C(=O)C2)cc1 [Example 66, (S)-2-(4-(4-cyanophenylsulfonyl)-2-oxopiperazin-1-yl)-3-cyclohexyl-N-(thiazol-2-yl)propanamide]
1580 to 2510	97.1 to 107	O=C(Nc1nccs1)[C@H](CC1CCCCC1)N1CCN(C(=S)Nc2cccc3ccccc23)CC1=O [Example 80, (S)-3-cyclohexyl-2-(4-(naphthalen-1-ylcarbamothioyl)-2-oxopiperazin-1-yl)-N-(thiazol-2-yl)propanamide]
≥ 3160	≤ 74	O=C(O)c1ccc(S(=O)(=O)N2CCN([C@@H](CC3CCCCC3)C(=O)Nc3nccs3)C(=O)C2)cc1 [Example 91, (S)-4-(4-(3-cyclohexyl-1-oxo-1-(thiazol-2-ylamino)propan-2-yl)-3-oxopiperazin-1-ylsulfonyl)benzoic acid]
